Laboratory results reported in patent US9079919B2 (HOFFMANN-LA ROCHE INC., priority 2011, dated 2015).

Target: T1, BACE1 (Homo sapiens, UniProt P56817)
T1 construct: Human HEK293 cells which are stably transfected with a vector expressing a cDNA of the human APP wt gene (APP695); endogenous in cells; host or cells: HEK293 cells stably transfected with human APP695 (wt)
Assay: Cellular Aβ-lowering assay a) (Aβ40 ELISA)
Assay type: cell-based
Conditions: cellular assay a): HEK293 cells expressing human APP695, Aβ40 in supernatant by ELISA after 18-20 hrs; read-out: BACE1 cell act. Aβ40 IC50
Description: a) Human HEK293 cells which are stably transfected with a vector expressing a cDNA of the human APP wt gene (APP695) were used to assess the potency of the compounds in a cellular assay. The cells were seeded in 96-well microtiter plates in cell culture medium (Iscove, plus 10% (v/v) fetal bovine serum, glutamine, penicillin/streptomycin) to about 80% confluence and the compounds were added at a 10× concentration in 1/10 volume of medium without FCS containing 8% DMSO (final concentration of DMSO was kept at 0.8% v/v). After 18-20 hrs incubation at 37° C. and 5% CO2 in a humidified incubator the culture supernatant was harvested for the determination of Aβ40 concentrations. 96 well ELISA plates (e.g., Nunc MaxiSorb) were coated with monoclonal antibody which specifically recognize the C-terminal end of Aβ40 (Brockhaus et al., NeuroReport 9, 1481-1486; 1998). After blocking of non-specific binding sites with e.g. 1% BSA and washing, the culture supernatants were added in suitable dilutions together with a horseradish peroxidase-coupled Aβ detection antibody (e.g., antibody 4G8, Senetek, Maryland Heights, Mo.) and incubated for 5 to 7 hrs. Subsequently the wells of the microtiter plate were washed extensively with Tris-buffered saline containing 0.05% Tween 20 and the assay was developed with tetramethylbenzidine/H2O2 in citric acid buffer. After stopping the reaction with one volume of 1N H2SO4 the reaction was measured in an ELISA reader at 450 nm wavelength. The concentrations of Aβ in the culture supernatants were calculated from a standard curve obtained with known amounts of pure Aβ peptide.

T1 sequence (P56817 46-501): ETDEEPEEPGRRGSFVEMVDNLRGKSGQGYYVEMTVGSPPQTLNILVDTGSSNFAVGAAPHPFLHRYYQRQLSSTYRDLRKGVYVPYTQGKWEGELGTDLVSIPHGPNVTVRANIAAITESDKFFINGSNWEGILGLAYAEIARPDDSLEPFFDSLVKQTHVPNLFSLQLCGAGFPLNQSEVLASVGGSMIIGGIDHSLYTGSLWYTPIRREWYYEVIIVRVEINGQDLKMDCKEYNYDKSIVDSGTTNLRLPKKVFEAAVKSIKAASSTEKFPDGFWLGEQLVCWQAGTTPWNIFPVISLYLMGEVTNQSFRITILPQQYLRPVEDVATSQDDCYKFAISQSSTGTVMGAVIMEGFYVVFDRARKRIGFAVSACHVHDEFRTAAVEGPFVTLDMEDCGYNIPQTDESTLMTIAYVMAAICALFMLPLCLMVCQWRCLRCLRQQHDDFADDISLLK

Compound	IC50
NC1=N[C@@]2(CC(c3ccccc3)Oc3ccc(-c4cc(Cl)cc(Cl)c4)cc32)C(F)(F)CO1 (mixture of isomers) [Example 26, (2RS,4R)-6-(3,5-dichlorophenyl)-5′,5′-difluoro-2-phenyl-5′,6′-dihydrospiro[chroman-4,4′-[1,3]oxazin]-2′-amine]	2870 nM
NC1=N[C@@]2(CC(c3ccccc3)Oc3ccc(NC(=O)c4ccc(C(F)(F)F)cn4)cc32)C(F)(F)COC1 (mixture of isomers) [Example 52, N-((2RS,4R)-3′-Amino-6′,6′-difluoro-2-phenyl-6′,7′-dihydro-2′H-spiro[chroman-4,5′-[1,4]oxazepine]-6-yl)-5-(trifluoromethyl)picolinamide]	3380 nM
NC1=N[C@@]2(CC(c3ccccc3)Oc3ccc(-c4cncc(Cl)c4)cc32)C(F)(F)COC1 (mixture of isomers) [Example 56, (2RS,4R)-6-(5-Chloropyridin-3-yl)-6′,6′-difluoro-2-phenyl-6′,7′-dihydro-2′H-spiro[chroman-4,5′-[1,4]oxazepin]-3′-amine]	2100 nM
NC1=N[C@@]2(CC(c3ccccc3)Oc3ccc(-c4cc(Cl)cc(Cl)c4)cc32)C(F)(F)COC1 (mixture of isomers) [Example 57, (2RS,4R)-6-(3,5-Dichlorophenyl)-6′,6′-difluoro-2-phenyl-6′,7′-dihydro-2′H-spiro[chroman-4,5′-[1,4]oxazepin]-3′-amine]	6280 nM
NC1=N[C@@]2(CCC(F)(F)c3ccc(-c4cncc(Cl)c4)cc32)C(F)(F)CO1 [Example 3, (R)-7-(5-Chloropyridin-3-yl)-4,4,5′,5′-tetrafluoro-3,4,5′,6′-tetrahydro-2H-spiro[naphthalene-1,4′-[1,3]oxazin]-2′-amine]	2550 nM
NC1=N[C@@]2(CCC(F)(F)c3ccc(-c4cncc(F)c4)cc32)C(F)(F)CO1 [Example 4, (R)-4,4,5′,5′-Tetrafluoro-7-(5-fluoropyridin-3-yl)-3,4,5′,6′-tetrahydro-2H-spiro[naphthalene-1,4′-[1,3]oxazin]-2′-amine]	5690 nM
N#Cc1cncc(-c2ccc3c(c2)[C@@]2(CCC3(F)F)N=C(N)OCC2(F)F)c1 [Example 5, (R)-5-(2′-Amino-4,4,5′,5′-tetrafluoro-3,4,5′,6′-tetrahydro-2H-spiro[naphthalene-1,4′-[1,3]oxazine]-7-yl)nicotinonitrile]	2770 nM
NC1=N[C@@]2(CCc3ccc(-c4cncnc4)cc32)C(F)(F)CO1 [Example 7, (R)-5′,5′-Difluoro-6-(pyrimidin-5-yl)-2,3,5′,6′-tetrahydrospiro[indene-1,4′-[1,3]oxazin]-2′-amine]	2370 nM
NC1=N[C@@]2(CCc3ccc(NC(=O)c4ccc(Cl)cn4)cc32)C(F)(F)CO1 [Example 16, (R)—N-(2′-Amino-5′,5′-difluoro-2,3,5′,6′-tetrahydrospiro[indene-1,4′-[1,3]oxazine]-6-yl)-5-chloropicolinamide]	2490 nM
NC1=N[C@@]2(CCOc3ccc(-c4cncnc4)cc32)C(F)(F)CO1 [Example 21, (R)-5′,5′-difluoro-6-(pyrimidin-5-yl)-5′,6′-dihydrospiro[chroman-4,4′-[1,3]oxazin]-2′-amine]	5140 nM
CC1(C)C[C@@]2(N=C(N)OCC2(F)F)c2cc(-c3cncc(Cl)c3)ccc2O1 [Example 28, (R)-6-(5-chloropyridin-3-yl)-5′,5′-difluoro-2,2-dimethyl-5′,6′-dihydrospiro[chroman-4,4′-[1,3]oxazin]-2′-amine]	2530 nM

These reach a lower IC50. Values come first.

IC50	Compound
420 nM	NC1=N[C@@]2(CC(c3ccccc3)Oc3ccc(-c4cncc(Cl)c4)cc32)C(F)(F)CO1 (mixture of isomers) [Example 23, (2RS,4R)-6-(5-chloropyridin-3-yl)-5′,5′-difluoro-2-phenyl-5′,6′-dihydrospiro[chroman-4,4′-[1,3]oxazin]-2′-amine]
98 nM	N#Cc1cncc(-c2ccc3c(c2)[C@@]2(CC(c4ccccc4)O3)N=C(N)OCC2(F)F)c1 (mixture of isomers) [Example 24, 5-((2RS,4R)-2′-amino-5′,5′-difluoro-2-phenyl-5′,6′-dihydrospiro[chroman-4,4′-[1,3]oxazine]-6-yl)nicotinonitrile]
1580 nM	NC1=N[C@@]2(CC(c3ccccc3)Oc3ccc(-c4cncnc4)cc32)C(F)(F)CO1 (mixture of isomers) [Example 25, (2RS,4R)-5′,5′-difluoro-2-phenyl-6-(pyrimidin-5-yl)-5′,6′-dihydrospiro[chroman-4,4′-[1,3]oxazin]-2′-amine]
470 nM	N#Cc1ccc(C(=O)Nc2ccc3c(c2)[C@@]2(CC(c4ccccc4)O3)N=C(N)COCC2(F)F)nc1 (mixture of isomers) [Example 53, N-((2RS,4R)-3′-Amino-6′,6′-difluoro-2-phenyl-6′,7′-dihydro-2′H-spiro[chroman-4,5′-[1,4]oxazepine]-6-yl)-5-cyanopicolinamide]
1290 nM	NC1=N[C@@]2(CC(c3ccccc3)Oc3ccc(-c4cncnc4)cc32)C(F)(F)COC1 (mixture of isomers) [Example 58, (2RS,4R)-6′,6′-difluoro-2-phenyl-6-(pyrimidin-5-yl)-6′,7′-dihydro-2′H-spiro[chroman-4,5′-[1,4]oxazepin]-3′-amine]
340 nM	N#Cc1cncc(-c2ccc3c(c2)[C@@]2(CC(c4ccccc4)O3)N=C(N)COCC2(F)F)c1 (mixture of isomers) [Example 59, 5-((2RS,4R)-3′-amino-6′,6′-difluoro-2-phenyl-6′,7′-dihydro-2′H-spiro[chroman-4,5′-[1,4]oxazepine]-6-yl)nicotinonitrile]
1040 nM	N#Cc1cccc(-c2ccc3c(c2)[C@@]2(CC(c4ccccc4)O3)N=C(N)COCC2(F)F)c1 (mixture of isomers) [Example 60, 3-((2RS,4R)-3′-amino-6′,6′-difluoro-2-phenyl-6′,7′-dihydro-2′H-spiro[chroman-4,5′-[1,4]oxazepine]-6-yl)benzonitrile]
195 nM	NC1=N[C@@]2(CC(c3ccccc3)Oc3ccc(NC(=O)c4ccc(Cl)cn4)cc32)C(F)(F)CO1 (single isomer, unassigned) [Example 36, N-((2R or 2S,4R)-2′-Amino-5′,5′-difluoro-2-phenyl-5′,6′-dihydrospiro[chroman-4,4′-[1,3]oxazine]-6-yl)-5-chloropicolinamide]
70 nM	N#Cc1ccc(C(=O)Nc2ccc3c(c2)[C@@]2(CC(c4ccccc4)O3)N=C(N)OCC2(F)F)nc1 (single isomer, unassigned) [Example 37, N-((2R or 2S,4R)-2′-Amino-5′,5′-difluoro-2-phenyl-5′,6′-dihydrospiro[chroman-4,4′-[1,3]oxazine]-6-yl)-5-cyanopicolinamide]
510 nM	NC1=N[C@@]2(CC(c3ccccc3)Oc3ccc(NC(=O)c4ccc(F)cn4)cc32)C(F)(F)CO1 (single isomer, unassigned) [Example 38, N-((2R or 2S,4R)-2′-Amino-5′,5′-difluoro-2-phenyl-5′,6′-dihydrospiro[chroman-4,4′-[1,3]oxazine]-6-yl)-5-fluoropicolinamide]
280 nM	NC1=N[C@@]2(CC(c3ccccc3)Oc3ccc(NC(=O)c4ccc(C(F)(F)F)cn4)cc32)C(F)(F)CO1 (single isomer, unassigned) [Example 39, N-((2R or 2S,4R)-2′-Amino-5′,5′-difluoro-2-phenyl-5′,6′-dihydrospiro[chroman-4,4′-[1,3]oxazine]-6-yl)-5-(trifluoromethyl)picolinamide]
1360 nM	NC1=N[C@@]2(CCc3ccc(-c4ccnc(Cl)c4)cc32)C(F)(F)CO1 [Example 6, (R)-6-(2-Chloropyridin-4-yl)-5′,5′-difluoro-2,3,5′,6′-tetrahydrospiro[indene-1,4′-[1,3]oxazin]-2′-amine]
960 nM	N#Cc1cccc(-c2ccc3c(c2)[C@@]2(CC3)N=C(N)OCC2(F)F)c1 [Example 10, (R)-3-(2′-Amino-5′,5′-difluoro-2,3,5′,6′-tetrahydrospiro[indene-1,4′-[1,3]oxazine]-6-yl)benzonitrile]
22 nM	NC1=N[C@@]2(CCCc3ccc(NC(=O)c4ccc(Cl)cn4)cc32)C(F)(F)CO1 [Example 12, (R)—N-(2′-Amino-5′,5′-difluoro-3,4,5′,6′-tetrahydro-2H-spiro[naphthalene-1,4′-[1,3]oxazine]-7-yl)-5-chloropicolinamide]
510 nM	N#Cc1ccc(C(=O)Nc2ccc3c(c2)[C@@]2(CC3)N=C(N)OCC2(F)F)nc1 [Example 15, (R)—N-(2′-Amino-5′,5′-difluoro-2,3,5′,6′-tetrahydrospiro[indene-1,4′-[1,3]oxazine]-6-yl)-5-cyanopicolinamide]
660 nM	NC1=N[C@@]2(CCc3ccc(NC(=O)c4ccc(C(F)(F)F)cn4)cc32)C(F)(F)CO1 [Example 18, (R)—N-(2′-Amino-5′,5′-difluoro-2,3,5′,6′-tetrahydrospiro[indene-1,4′-[1,3]oxazine]-6-yl)-5-(trifluoromethyl)picolinamide]
260 nM	N#Cc1cccc(-c2ccc3c(c2)[C@@]2(CC(c4ccccc4)O3)N=C(N)OCC2(F)F)c1 (stereo partly shown) [Example 27]
